{"source": "patent US10363229B2", "about": "“Methods and compositions for the treatment of cancer” (priority 2009, dated 2019)", "key": {"[1]": {"tested_on": "M3 Cloudman melanoma cells", "assay": "Live cell video microscopy of melanoma cells (morphology, contact inhibition)", "format": "cell-based, mouse", "procedure": "Cloudman S-91 mouse melanoma cells (sub-clone M-3, CCL 53.1; American Type Culture Collection, Rockville, Md.) were grown in RMPI medium supplemented with 10% fetal bovine serum (Invitrogen, Inc) and 5% penicillin-streptomycin (Invitrogen, Inc). Mouse breast cancer cells (66Cl-1; American Type Culture Collection, Rockville, Md.) that are estrogen-receptor negative were grown in DMEM medium supplemented with 10% fetal bovine serum (Invitrogen, Inc) and 5% penicillin/streptomycin (Invitrogen, Inc). Human T-cell leukemic lymphocytes (CEM; American Type Culture Collection, Rockville, Md.) were grown in MEM medium supplemented with 7% fetal calf serum. Cultures were passaged twice a week.\nCells were plated on 35 mm tissue culture dishes at concentration of 10^5 cells/plate, unless stated otherwise, and incubated at 37° C., 5% CO2. After 24 hours, methyl sulfone (0-10% in medium) was added to appropriate plates and immediately videotaped with a Nikon TE300 inverted microscope equipped with a 10×0.25 NA Plan Achromat objective lens. Control cells (no drug) were videotaped as described above. Time series (10 min) of phase contrast images were acquired at a video rate of 1 frame/5 s with a Watec-902B CCD video camera (Watec Corp., Japan) via the stream acquisition option of Metamorph image acquisition and analysis software (Universal Imaging Corp., Downington, Pa.). During recordings, cells were kept at 37° C. with 10 mM Hepes, pH 7.4. Time series of cells +/−2% methyl sulfone were obtained every 24-48 hours for up to 6 weeks.\nM3 Cloudman melanoma cells were plated into culture dishes containing RPMI medium. After 24 hour media was changed to control medium (no drug) or to media containing different concentrations of methyl sulfone (1-10% methyl sulfone in RPMI medium). Cells were examined by live cell video microscopy immediately after adding drug and every 24 hours up to 144 hours.\nThe possibility that the data generated from treating cells with methyl sulfone was a nonspecific effect due to changes in extracellular osmolarity was considered. To test this possibility an equimolar concentration of urea was substituted for 2% methyl sulfone; urea has a chemical structure and dipolar moment that is similar to methyl sulfone. […] We next replaced 2% methyl sulfone with an equimolar concentration of dimethyl sulfoxide (DMSO)."}, "melanoma cells [2]": {"tested_on": "melanoma cells", "assay": "Cell wounding / wound healing", "format": "cell-based, mouse", "conditions": "2% methyl sulfone", "procedure": "Cells were cultured to approximately 90% confluence in 35 mm tissue culture plates. Methyl sulfone (2%) was added to half the plates and 48 hours later cells were wounded with a sterile plastic 1000 μl pipette tip. Cells were washed two times with medium to remove cell debris and incubated at 37° C. over night in RMPI medium +/−2% methyl sulfone. After 72 hours, wound edges were photographed and recorded with a Nikon TE300 inverted microscope (Nikon) equipped with a 10×0.25 NA Plan Achromat objective lens. Time-series (5 min long) of phase contrast images were acquired at a video rate (1 frame/3s) with a Watec-902B CCD video camera (Watec Corp., Japan) via stream acquisition option of Metamorph image acquisition and analysis software (Universal Imaging Corp., Downington, Pa.). During the recordings, cells were kept at 37° C. and 10 mM Hepes. Time series and photographs of cells +/−2% methyl sulfone were obtained every 24 hours for up to 120 hrs.\nWe tested whether melanoma cells treated with 2% methyl sulfone would function properly in the process of wound healing. As described in herein, control melanoma cells and cells treated with 2% methyl sulfone were grown to confluence. Scraping a layer of confluent cells with a plastic pipette tip formed wounds. Live cell video microscopy was used to monitor migration of cells into the wound."}, "melanoma cells [3]": {"tested_on": "melanoma cells", "assay": "Cell proliferation, BrdU incorporation into DNA", "format": "cell-based, mouse", "conditions": "2% methyl sulfone", "procedure": "Cells were plated onto sterile 12 mm coverslips in 35 mm tissue culture plates and incubated at 37° C., 5% CO2. After 24 hours, 2% methyl sulfone in medium or medium alone was added the plates and incubated at 37° C., 5% CO2 for 48 and 72 hrs. BrdU (Molecular Probes, Eugene, Oreg., USA; diluted ⅓ in RPMI medium) was added to each plate for 60 minutes at 37° C., 5% CO2. Coverslips were transferred to porcelain holders, washed with PBS, fixed in methanol/acetone (1:1), washed with PBS, and incubated in 5% BSA/PBS for 30 minutes at room temperature. To denature DNA, coverslips were placed in 0.1N HCL/1% Triton X-100 for 10 minutes at room temperature. After washing in PBS, cells were incubated with Alexa Fluor 488 anti-BrdU antibody (Molecular Probes, Eugene, Oreg.; diluted 1/20 in 5% BSA/PBS) for 60 minutes at room temperature. Cells were washed in PBS and incubated with Hoechst (diluted 1/1000 in PBS) in the dark at room temperature. After washing in PBS, cells were dipped in dH2O and drained onto Kim Wipes. SlowFade mounting medium (Molecular Probes, Eugene, Oreg.) was added to a glass slide and coverslips were placed face down onto slides and sealed with clear nail polish. […]"}, "CEM leukemic lymphocytes": {"tested_on": "CEM leukemic lymphocytes", "assay": "Apoptosis of leukemic lymphocytes by Flow Cytometry", "format": "cell-based, human", "procedure": "CEM leukemic lymphocytes were also incubated in the presence or absence of 10% methyl sulfone.\n(§1) After 20 hours, cells were incubated with fluorescent antibodies to identify T-cells, B-cells and neutrophils, and then processed by Flow Cytometry (FIG. 15)."}, "[4]": {"tested_on": "B-cells from healthy volunteers", "assay": "Apoptosis of normal B-cells by Flow Cytometry", "format": "cell-based, human", "conditions": "10% methyl sulfone, 20 hours", "procedure": "Blood was drawn from healthy volunteers and white blood cells (e.g., lymphocytes, neutrophils) were enriched using Ficoll-Plaque. Cells were incubated in Petri dishes containing MEM with 7% fetal calf serum in a CO2 (5%) incubator at 37° C.; Methyl sulfone was present at concentrations of 0, 3, 6, or 10%. After 20 hours, cells were incubated with antibodies specific to T-lymphocytes (CD3 and CD4 T-cells), B-lymphocytes (B-cells) and neutrophils, and the percent of apoptotic cells was determined by Flow Cytometry. This is a technique that identifies specific cell types (e.g., CD3 T-cells, CD4 T-cells, B-cells, neutrophils) within a mixed population of blood cells, and then determines whether the cells are alive or apoptotic.\nas §1"}}, "data": [{"substance": "methyl sulfone", "values": [{"measurement": "contact inhibition", "setting": "[1]; 2% methyl sulfone, by 24 hours", "result": "contact inhibited"}, {"measurement": "cell morphology after re-attachment", "setting": "[1]; 2% methyl sulfone, over the next few hours", "result": "flattened morphology"}, {"measurement": "morphology immediately after adding drug", "setting": "[1]; all concentrations (1-10% in RPMI medium)", "result": "cells became round with some cells detaching from culture plates"}, {"measurement": "behaviour when the wound was covered", "setting": "melanoma cells [2]", "result": "stopped migrating and once again became contact inhibited"}, {"measurement": "rate of migration into the wound area", "setting": "melanoma cells [2]", "result": "slower rate than control cells"}, {"measurement": "cells synthesizing DNA (BrdU incorporation)", "setting": "melanoma cells [3]; 48 hours (control 14%)", "result": 0.03, "unit": "%"}, {"measurement": "cells synthesizing DNA (BrdU incorporation)", "setting": "melanoma cells [3]; 72 hours (control 21%)", "result": 0, "unit": "%"}, {"measurement": "CEM leukemic lymphocytes killed", "setting": "CEM leukemic lymphocytes; 10% methyl sulfone, 20 hours", "result": 92, "unit": "%"}, {"measurement": "leukemic cells induced into apoptosis", "setting": "CEM leukemic lymphocytes; summary in the description, concentration not given", "result": "more than 90%"}, {"measurement": "effect on B-cells", "setting": "[4]", "result": "unharmed"}]}]}
